From patent US9150592B2, “Heterocyclic nuclear hormone receptor modulators” (AbbVie Inc., priority 2012, dated 2015) come the findings set out here.

The test system of assay [1] is IL-6 in A549 cells stimulated with IL-1β. As to the kind of experiment: A549 Cell Assay to Measure Inflammation Markers (inhibition of IL-1β-induced IL-6). The class given is cell-based. The settings on record: Homo sapiens, A549, A549 Cell Assay to Measure Inflammation Markers; intrinsic activity, Emax class ranges. How it is done:
A549 Cell Assay to Measure Inflammation Markers
Further dilution (1:250) of compound was made into assay medium and 50 μL/well diluted drug or DMSO/media control was applied to cells. After a 1 h pre-incubation in a temperature, CO2, and humidity controlled incubator, set to 37° C., 50 μL/well of 4 ng/mL IL-1β diluted in assay media, was applied to cultures. Assay plates, with a final volume of 200 μL/well and final concentrations of 0.1% DMSO and 1 ng/mL IL-1β were returned to incubator for a […] incubation period. Next, plates were spun at 183 g (1000 rpm in Beckman/Coulter Allegra 6KR centrifuge) for 10 min. Cell-free supernatant (150 μL/well) was collected and IL-6 was measured by MSD kit, following protocol of manufacturer, and using MSD SECTOR Imager 6000 instrument. […] Results were represented as IC50 and Emax values.

The target of assay [2] is T1, Glucocorticoid Receptor (GR) (Homo sapiens, UniProt P04150).
T1 construct: purchased Invitrogen P2893
T1 sequence (P04150 1-777): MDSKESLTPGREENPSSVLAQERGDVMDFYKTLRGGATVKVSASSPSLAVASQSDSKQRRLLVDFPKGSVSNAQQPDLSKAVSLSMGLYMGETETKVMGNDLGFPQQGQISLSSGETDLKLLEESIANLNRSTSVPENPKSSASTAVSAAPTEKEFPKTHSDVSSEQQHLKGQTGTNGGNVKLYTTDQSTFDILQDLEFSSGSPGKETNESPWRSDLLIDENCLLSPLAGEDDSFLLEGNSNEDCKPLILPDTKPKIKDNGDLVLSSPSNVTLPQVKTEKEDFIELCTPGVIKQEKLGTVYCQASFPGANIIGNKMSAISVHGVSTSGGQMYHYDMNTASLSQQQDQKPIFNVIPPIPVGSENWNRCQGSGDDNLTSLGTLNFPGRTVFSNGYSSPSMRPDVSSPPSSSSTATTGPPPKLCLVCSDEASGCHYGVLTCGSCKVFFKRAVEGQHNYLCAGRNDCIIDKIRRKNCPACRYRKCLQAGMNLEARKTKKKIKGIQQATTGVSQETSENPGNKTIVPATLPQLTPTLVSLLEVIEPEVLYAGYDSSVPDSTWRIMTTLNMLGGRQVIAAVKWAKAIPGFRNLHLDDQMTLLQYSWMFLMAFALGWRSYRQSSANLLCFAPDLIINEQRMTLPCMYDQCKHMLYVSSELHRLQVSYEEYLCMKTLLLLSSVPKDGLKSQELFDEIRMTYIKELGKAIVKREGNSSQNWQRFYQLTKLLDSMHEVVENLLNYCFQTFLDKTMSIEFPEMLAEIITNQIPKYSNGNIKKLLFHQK
As to the kind of experiment: GR Fluorescence Polarization Assay (PolarScreen Glucocorticoid Receptor Competitor Assay, Red). The settings on record: IC50 class ranges, read-out: GR binding. The procedure, abridged:
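Competitive fluorescence-polarization assay using a red fluorescent glucocorticoid tracer with human GR in kit buffer. Compounds serially diluted 1:4 in DMSO, incubated with tracer and GR overnight at 4° C, then polarization read.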

Take `Cc1ccc(C)c(C2SCCNc3c2c(-c2ccccn2)nn3C)c1` (stereo not drawn) [D.20]: the Emax in assay [1] was below 50%. Further, the IC50 in assay [2] is below 0.1 µM.
For `Cc1cc(-c2nn(C)c3c2C(c2ccc(Cl)cc2C)SCCN3)no1` (stereo not drawn) [D.43], in assay [1], the Emax was below 50%. For the same compound, the IC50 in assay [2] was below 0.1 µM.
The like results for `Cn1nc(-c2ccccn2)c2c1NCC[S+]([O-])C2c1ccc(Cl)cc1Cl` (stereo not drawn) [L.2] were, in that order, below 50% and 1 to 10 µM.
Consider `Cc1cc(F)ccc1C1SCCNc2c1c(-c1ccccn1)nn2C` (stereo not drawn) [D.11], for which the Emax in assay [1] is above 50%. Further, the IC50 in assay [2] was below 0.1 µM.
In turn, `Cc1ccc(C#N)cc1C1SC(C)(C)CNc2c1c(C1CC1)nn2C` (stereo not drawn) [G.5] returned an Emax in assay [1] below 50%. Besides, in assay [2], the IC50 is 0.1 to 1 µM.
As to `Cn1nc(-c2ccccn2)c2c1NCCS(=O)(=O)C2c1ccc(Cl)cc1Cl` (stereo not drawn) [L.3], the Emax in assay [1] is below 50%. Further, the IC50 in assay [2] lay within 0.1 to 1 µM.
For `Cc1sc(Br)cc1C1SCCNc2c1c(-c1ccccn1)nn2C` (stereo not drawn) [D.34, 4-(5-bromo-2-methyl-3-thienyl)-1-methyl-3-(2-pyridyl)-4,6,7,8-tetrahydropyrazolo[3,4-e][1,4]thiazepine], in that order: below 50% and below 0.1 µM.
With `Cc1cc(Br)ccc1[C@H]1SC[C@H](CC#N)Nc2c1c(-c1ccccn1)nn2C` (racemic), the Emax in assay [1] is above 50%. Also, the IC50 in assay [2] was below 0.1 µM.
With `CCn1nc(-c2ccccn2)c2c1NCCSC2c1ccc(C(=O)Nc2nnc[nH]2)cc1C` (stereo not drawn) [S.5], the Emax in assay [1] was above 70%. Besides, in assay [2], the IC50 was below 0.1 µM.
For `CCn1nc(-c2ccccn2)c2c1NCCSC2c1ccc(C(=O)Nc2cccnc2C)cc1C` (single isomer, unassigned) [M.62, 4-(1-ethyl-3-(pyridin-2-yl)-4,6,7,8-tetrahydro-1H-pyrazolo[3,4-e][1,4]thiazepin-4-yl)-3-methyl-N-(2-methylpyridin-3-yl)benzamide], in that order: above 70% and below 0.1 µM.
Take `CCn1nc(-c2ccccn2)c2c1NCCSC2c1ccc(C(=O)Nc2nncs2)cc1C` (stereo not drawn) [S.3]: the Emax in assay [1] is below 50%. Also, the IC50 in assay [2] is below 0.1 µM.
For `Cc1cc2c(cnn2-c2ccc(F)cc2)cc1C1SCCNc2c1c(-c1ccccn1)nn2C` (stereo not drawn) [D.109], in assay [1], the Emax was above 70%. The IC50 in assay [2] is below 0.1 µM.
As for `Cc1cc(Br)ccc1C1SCCNc2onc(-c3ccccn3)c21` (stereo not drawn) [D.44, 4-(4-bromo-2-methyl-phenyl)-3-(2-pyridyl)-4,6,7,8-tetrahydroisoxazolo-[5,4-e][1,4]thiazepine], in assay [1], the Emax was below 50%. Also, the IC50 in assay [2] was below 0.1 µM.
The like results for `CCn1nc(-c2ccccn2)c2c1N[C@H](C)CS[C@H]2c1ccc(CCCO)cc1C` (single isomer, unassigned) [M.35, 3-(4-(1-ethyl-7-methyl-3-(pyridin-2-yl)-4,6,7,8-tetrahydro-1H-pyrazolo[3,4-e][1,4]thiazepin-4-yl)-3-methylphenyl)propan-1-ol] were, in that order, above 70% and below 0.1 µM.
As for `Cn1nc(-c2ccccn2)c2c1NCCSC2c1ccncc1Cl` (stereo not drawn) [D.7], the Emax in assay [1] was below 50%. For the same compound, the IC50 in assay [2] was below 0.1 µM.
In the case of `Cc1cc(Cl)ccc1[C@H]1SC[C@H](C)Nc2c1c(-c1ccccn1)nn2C`, the Emax in assay [1] was below 50%. In addition, the IC50 in assay [2] was 1 to 10 µM.
For `CCn1nc(-c2ccccn2)c2c1NCCSC2c1ccc(C(=O)Nc2n[nH]cc2C#N)cc1C` (stereo not drawn) [S.8], in that order: above 50% and below 0.1 µM.
Regarding `Cn1nc(-c2nccs2)c2c1NCC(C)(C)SC2c1ccc(Cl)cc1Cl` (stereo not drawn) [D.17], the Emax in assay [1] is below 50%. Also, in assay [2], the IC50 is 0.1 to 1 µM.
In assay [1], `Cn1nc(-c2cc(F)cc(F)c2)c2c1NCCSC2c1ccc(Cl)cc1Cl` (stereo not drawn) [D.90] returned an Emax below 50%. In addition, the IC50 in assay [2] is below 0.1 µM.
`CCn1nc(-c2ccccn2)c2c1NCCCC2c1ccc(C(=O)Nc2cccnc2C)cc1C` (stereo not drawn) [F.7] showed an Emax in assay [1] above 70%. Also, the IC50 in assay [2] is below 0.1 µM.
`Cc1cc(Br)ccc1[C@H]1SC[C@H](C(N)=O)Nc2c1c(-c1ccccn1)nn2C` (racemic) showed an Emax in assay [1] below 50%. Further, the IC50 in assay [2] fell in the range of 0.1 to 1 µM.
The compound `CN(C)c1ccc(C2SCCNc3c2c(-c2ccccn2)nn3C)c(Cl)c1` (stereo not drawn) [D.6] gave an Emax in assay [1] below 50%. Besides, the IC50 in assay [2] was in the range of 0.1 to 1 µM.
Turning to `Cn1nc(-c2ccccn2)c2c1NCCSC2c1ccc(Cl)cc1C(F)(F)F` (stereo not drawn) [D.3], in assay [1], the Emax was below 50%. Moreover, the IC50 in assay [2] was below 0.1 µM.
The compound `Cc1ccc(Cl)cc1C1SCCNc2c1c(-c1ccccn1)nn2C` (stereo not drawn) [D.40] displayed an Emax in assay [1] below 50%. For the same compound, the IC50 in assay [2] is below 0.1 µM.
Consider `CC1CSC(c2ccc(Br)cc2C(F)(F)F)c2c(-c3ccccn3)nn(C)c2N1` (stereo not drawn) [K.11], for which the Emax in assay [1] was below 50%. Besides, the IC50 in assay [2] was below 0.1 µM.
Take `Cc1cc(C(=O)Nc2cccnc2C)ccc1C1SCC(CO)Nc2c1c(-c1ccccn1)nn2C` (single isomer, unassigned): in assay [1], the Emax is above 70%. In addition, in assay [2], the IC50 is below 0.1 µM.
The like results for `CCn1nc(-c2ccccn2)c2c1NCCSC2c1ccc(C(=O)Nc2ccnn2C)cc1C` (stereo not drawn) [S.1, 4-(1-ethyl-3-(pyridin-2-yl)-4,6,7,8-tetrahydro-1H-pyrazolo[3,4-e][1,4]thiazepin-4-yl)-3-methyl-N-(1-methyl-1H-pyrazol-5-yl)benzamide] were, in that order, above 70% and below 0.1 µM.
Regarding `Cc1cc(F)ccc1C1SC(C)(C)CNc2c1c(C1CC1)nn2C` (stereo not drawn) [D.56], the Emax in assay [1] is below 50%. For the same compound, the IC50 in assay [2] was below 0.1 µM.
The like results for `Cc1cc(C(=O)Nc2cccnc2C)ccc1[C@H]1CC[C@](O)(C(F)(F)F)Cc2c1c(-c1ccccn1)nn2C` (racemic) were, in that order, above 70% and below 0.1 µM.
The like results for `CC(C)Cc1nn(C)c2c1C(c1ccc(Cl)cc1Cl)SCCN2` (stereo not drawn) [D.92] were, in that order, below 50% and below 0.1 µM.
For `Cn1nc(-c2ccccn2)c2c1NCCSC2Cc1ccccc1` (stereo not drawn) [D.36], in that order: below 50% and above 10 µM.
As to `Cc1cc(C(F)(F)F)ccc1C1SC(C)(C)CNc2c1c(C)nn2C` (stereo not drawn) [D.61], in assay [1], the Emax is below 50%. For the same compound, the IC50 in assay [2] is below 0.1 µM.
For `COc1ccc(C)c(C2SCCNc3c2c(-c2ccccn2)nn3C)c1` (stereo not drawn) [D.28], the Emax in assay [1] was below 50%. In addition, the IC50 in assay [2] was in the range of 1 to 10 µM.
For `Cn1nc(-c2ccccn2)c2c1NCCSC2c1ccc(C(=O)Nc2cccnc2)cc1Cl` (stereo not drawn) [H.3], in that order: below 50% and 0.1 to 1 µM.
For `Cc1cc(Cl)ccc1C1SCCNc2c1c(-c1ccccn1)nn2C` (stereo not drawn) [D.1, 4-(4-chloro-2-methyl-phenyl)-1-methyl-3-(2-pyridyl)-4,6,7,8-tetrahydro-pyrazolo[3,4-e][1,4]thiazepine], in that order: above 60% and below 0.1 µM.
For `Cc1cc(C(=O)Nc2cccnc2C)sc1C1SCCNc2c1c(-c1ccccn1)nn2C` (stereo not drawn) [F.4], in that order: below 50% and above 10 µM.
For `Cc1cc(Cl)ccc1C1SCCNc2c1c(O)nn2C` (stereo not drawn) [D.73, 4-(4-chloro-2-methyl-phenyl)-1-methyl-4,6,7,8-tetrahydropyrazolo[3,4-e][1,4]thiazepin-3-ol], the Emax in assay [1] was below 50%. In addition, the IC50 in assay [2] is above 10 µM.
In the case of `Cn1nc(C2CCCC2)c2c1NCC(C)(C)SC2c1ccc(Cl)cc1Cl` (stereo not drawn) [D.79], in assay [1], the Emax was below 50%. Also, in assay [2], the IC50 was below 0.1 µM.
For `Cc1nn(C)c2c1C(c1ccc(Cl)cc1Cl)SC(C)(C)CN2CC(O)C(F)(F)F` (stereo not drawn), in that order: below 50% and above 10 µM.
The compound `CCn1nc(-c2ccccn2)c2c1N[C@H](C)CS[C@H]2c1ccc(CCC(C)(C)O)cc1C` (single isomer, unassigned) [M.40, 4-(4-(1-ethyl-7-methyl-3-(pyridin-2-yl)-4,6,7,8-tetrahydro-1H-pyrazolo[3,4-e][1,4]thiazepin-4-yl)-3-methylphenyl)-2-methylbutan-2-ol] gave an Emax in assay [1] above 70%. The IC50 in assay [2] is below 0.1 µM.
The like results for `CCn1nc(-c2ccccn2)c2c1NCCCC2c1ccc(Br)cc1` (stereo not drawn) were, in that order, above 70% and below 0.1 µM.
In assay [1], `Cn1nc(-c2ccccn2)c2c1NCCSC2c1ccc(Br)cc1Cl` (stereo not drawn) showed an Emax below 50%. For the same compound, the IC50 in assay [2] is below 0.1 µM.
